Experimental data reported in publication PMC4421842 (Nature Communications, 2015).
In brackets after ≈: the same amount, converted by molar mass. Where two headings read alike, the source gives them in different places.

Tests used:
E. faecium = assay: microbe, parasite or virus in culture; type: cell-based; conditions: for MIC: Enterococcus faecium, E. faecium
E. faecalis = assay: microbe, parasite or virus in culture; type: cell-based; conditions: for MIC: Enterococcus faecalis, E. faecalis
[1] = tested on: resistant strains of ATCC 29213; assay: microbe, parasite or virus in culture; type: cell-based, S. aureus; conditions: Staphylococcus aureus
P. aeruginosa [2] = assay: MIC, microdilution broth, P. aeruginosa; type: cell-based
Excerpt: (§1) MRSA and P. aeruginosa isolates were from Cubist Pharmaceuticals (Lexington, MA). VRE isolates were from a previously published collection. E. coli strains were obtained either from ATCC or Professor Cari Vanderpool (UIUC). A. baumannii isolates were obtained from Dr John Quale[51].
(§2) Mueller Hinton (MH) broth was used.

A. baumannii [3] = assay: MIC, microdilution broth, A. baumannii; type: cell-based; conditions: for MIC: Acinetobacter baumannii
Excerpt: as §1, §2

E. coli = assay: microbe, parasite or virus in culture; type: cell-based
Excerpt: as §1, §2

P. aeruginosa [4] = tested on: P. aeruginosa; parameters: method as in earlier work; conditions: previously determined, cited from earlier work
A. baumannii [5] = tested on: A. baumannii; parameters: method as in earlier work; conditions: previously determined, cited from earlier work
physchem = conditions: pH 7.4
Description: Three independent replicates of each compound were performed.

VRE clinical isolates = assay: MIC, VRE clinical isolates panel (summary by GyrA mutation); type: cell-based, Enterococcus; conditions: panel of VRE clinical isolates (n=22)
Excerpt: as §1, §2

Ent. Spp. = assay: MIC, microdilution broth, Ent. Spp. VRE clinical isolate; type: cell-based; conditions: Enterococcus, C28036, gyrA Ser83Ile, parC Ser80Ile
Excerpt: as §1, §2

MRSA clinical isolates = assay: microbe, parasite or virus in culture; type: cell-based, S. aureus; conditions: for MIC: Staphylococcus aureus, MRSA, read-out: MIC
Description: as §1
Susceptibility testing was performed in triplicate, using the microdilution broth method as outlined by the Clinical and Laboratory Standards Institute[52]. Mueller Hinton (MH) broth was used.

[6] = tested on: FQR S. aureus (NRS3, FQR); assay: MIC, microdilution broth assay, FQR MRSA NRS3; type: cell-based; conditions: NRS3; S84L GyrA and S80F ParC; three independent replicates
[7] = tested on: WT S. aureus (ATCC 29213, WT); assay: microbe, parasite or virus in culture; type: cell-based; conditions: WT GyrA and WT ParC, three independent replicates
[8] = ATCC19433, ATCC 19433, gyrA WT, parC WT
[9] = ATCC29212, ATCC 29212, gyrA WT, parC WT

With `O=C(O)c1cn(C2CC2)c2cc(N3CCNCC3)c(F)cc2c1=O` [CIP, ciprofloxacin, reference compound] the “CIP (S/I/R)” value (E. faecium; strain C21190) was “R (resistant (R) with a MIC ≥ 16 µg mL-1)”, the “CIP (S/I/R)” value (E. faecium; strain C27282) was “R (resistant (R) with a MIC ≥ 16 µg mL-1)” and the “CIP (S/I/R)” value (E. faecium; strain C27569) was “R (resistant (R) with a MIC ≥ 16 µg mL-1)”. For the same compound, the “CIP (S/I/R)” value (E. faecium; strain D1) was “R (resistant (R) with a MIC ≥ 16 µg mL-1)”, the “CIP (S/I/R)” value (E. faecium; strain S34) was “R (resistant (R) with a MIC ≥ 16 µg mL-1)” and the “CIP (S/I/R)” value (E. faecium; strain S51) was “R (resistant (R) with a MIC ≥ 16 µg mL-1)”. For the same compound, the “CIP (S/I/R)” value (E. faecium; strain S122) was “R (resistant (R) with a MIC ≥ 16 µg mL-1)”, the “CIP (S/I/R)” value (E. faecium; strain S226) was “R (resistant (R) with a MIC ≥ 16 µg mL-1)” and the “CIP (S/I/R)” value (E. faecium; strain S235) was “R (resistant (R) with a MIC ≥ 16 µg mL-1)”. For the same compound, the “CIP (S/I/R)” value (E. faecium; strain S344) was “R (resistant (R) with a MIC ≥ 16 µg mL-1)”, the “CIP (S/I/R)” value (E. faecium; strain S557) was “R (resistant (R) with a MIC ≥ 16 µg mL-1)” and the “CIP (S/I/R)” value (E. faecium; strain SL152) was “R (resistant (R) with a MIC ≥ 16 µg mL-1)”. The “CIP (S/I/R)” value (E. faecium; strain U63) was “R (resistant (R) with a MIC ≥ 16 µg mL-1)”, the “CIP (S/I/R)” value (E. faecium; strain U275) was “R (resistant (R) with a MIC ≥ 16 µg mL-1)” and the “CIP (S/I/R)” value (E. faecium; strain U464) was “R (resistant (R) with a MIC ≥ 16 µg mL-1)”. For the same compound, the “CIP (S/I/R)” value (E. faecium; strain U503) was “R (resistant (R) with a MIC ≥ 16 µg mL-1)”, the “CIP (S/I/R)” value (E. faecium; strain U563) was “R (resistant (R) with a MIC ≥ 16 µg mL-1)” and the MIC (E. faecalis; [8]) was 2 µg/mL (≈ 6.04 µM). For the same compound, the MIC (E. faecalis; [9]) was 0.5 to 2 µg/mL (≈ 1.51 to 6.04 µM), the “CIP (S/I/R)” value (E. faecalis; strain ATCC 19433) was “S (sensitive (S) if it had an MIC ≤ 4 µg mL-1)” and the “CIP (S/I/R)” value (E. faecalis; strain ATCC 29212) was “S (sensitive (S) if it had an MIC ≤ 4 µg mL-1)”. The “CIP (S/I/R)” value (E. faecalis; strain C21667) was “R (resistant (R) with a MIC ≥ 16 µg mL-1)”, the “CIP (S/I/R)” value (E. faecalis; strain C28535) was “R (resistant (R) with a MIC ≥ 16 µg mL-1)” and the “CIP (S/I/R)” value (E. faecalis; strain S206) was “R (resistant (R) with a MIC ≥ 16 µg mL-1)”. For the same compound, the “CIP (S/I/R)” value (E. faecalis; strain S234) was “R (resistant (R) with a MIC ≥ 16 µg mL-1)”, the MIC ([1]; ATCC29213, high-level CIP-resistant strains, second step, S84L mutation in GyrA) was 16 to 64 µg/mL (≈ 48.3 to 193 µM) and the MIC ([1]; ATCC29213, low-level CIP-resistant strains, first step, WT gyrA, mutation in ParC (for example E84K or S80F)) was 4 to 8 µg/mL (≈ 12.1 to 24.1 µM). For the same compound, the “CIP (S/R)” value (P. aeruginosa [2]) was “S”, the “CIP (S/R)” value (A. baumannii [3]) was “S” and the “CIP (S/R)” value (E. coli) was “S”. For the same compound, the “CIP (S/R)” value (P. aeruginosa [4]; PA1000) was “R”, the “CIP (S/R)” value (P. aeruginosa [4]; PA1586) was “R” and the “CIP (S/R)” value (A. baumannii [5]; A. baumannii KB304) was “R”. For the same compound, the “CIP MIC” value (A. baumannii [5]; A. baumannii KB304) was 24 µg/mL, the “CIP (S/R)” value (A. baumannii [5]; A. baumannii KB349) was “R” and the “CIP MIC” value (A. baumannii [5]; A. baumannii KB349) was greater than 32 µg/mL.

For `CCCn1c(=O)cc(C)c2cc3c(C)cc(=O)n4c3c(c21)OC4` [DNM-8], the solubility at 1 h (physchem) was 68 ± 9 µM (≈ 21.1 µg/mL), the “Sensitivity of VRE clinical isolates” value (VRE clinical isolates) was “sensitive” and the MIC (E. faecium; C21190, gyrA Ser83 Arg, parC Ser80Ile) was 8 µg/mL (≈ 25.8 µM). The MIC (E. faecium; C27282, gyrA Ser83 Arg, parC Ser80Arg) was 8 µg/mL (≈ 25.8 µM), the MIC (E. faecium; C27569, gyrA Ser83Ile, parC Ser80Ile) was 1 µg/mL (≈ 3.22 µM) and the MIC (E. faecium; D1, gyrA Ser83Ile, parC Ser80Ile) was 0.5 µg/mL (≈ 1.61 µM). It also gave an MIC (E. faecium; S34, gyrA Ser83Ile, parC Ser80 Arg) of 2 µg/mL (≈ 6.44 µM), an MIC (E. faecium; S51, gyrA Ser83Ile, parC Ser80Ile) of 1 µg/mL (≈ 3.22 µM) and an MIC (E. faecium; S122, gyrA Ser83Ile, parC Ser80Ile) of 1 µg/mL (≈ 3.22 µM). For the same compound, the MIC (E. faecium; S226, gyrA Ser83Ile, parC Ser80Ile) was 1 µg/mL (≈ 3.22 µM), the MIC (E. faecium; S235, gyrA Ser83Ile, parC Ser80Ile) was 1 µg/mL (≈ 3.22 µM) and the MIC (E. faecium; S344, gyrA Ser83Ile, parC Ser80Ile) was 1 µg/mL (≈ 3.22 µM). It also gave an MIC (E. faecium; S557, gyrA Ser83Ile, parC Ser80Ile) of 0.5 µg/mL (≈ 1.61 µM), an MIC (E. faecium; SL152, gyrA Ser83Ile, parC Ser80Ile) of 1 µg/mL (≈ 3.22 µM) and an MIC (E. faecium; U63, gyrA Ser83 Arg, parC Ser80Ile) of 4 µg/mL (≈ 12.9 µM). The MIC (E. faecium; U275, gyrA Ser83Cys Glu87Gly, parC Ser80Ile) was 4 µg/mL (≈ 12.9 µM), the MIC (E. faecium; U464, gyrA Ser83 Arg, parC Ser80Ile) was 2 µg/mL (≈ 6.44 µM) and the MIC (E. faecium; U503, gyrA Ser83 Arg, parC Ser80Ile) was 4 µg/mL (≈ 12.9 µM). The MIC (E. faecium; U563, gyrA Ser83 Arg, parC Ser80Ile) was 4 µg/mL (≈ 12.9 µM), the MIC (Ent. Spp.) was 1 µg/mL (≈ 3.22 µM) and the MIC (E. faecalis; [8]) was 16 µg/mL (≈ 51.6 µM). The MIC (E. faecalis; [9]) was 8 µg/mL (≈ 25.8 µM), the MIC (E. faecalis; C21667, gyrA Ser83Ile, parC Ser80Ile) was 1 µg/mL (≈ 3.22 µM) and the MIC (E. faecalis; C28535, gyrA Ser83Ile, parC Ser80Ile) was 1 µg/mL (≈ 3.22 µM). For the same compound, the MIC (E. faecalis; S206, gyrA Ser83 Arg, parC Ser80Ile) was 4 µg/mL (≈ 12.9 µM), the MIC (E. faecalis; S234, gyrA Ser83Ile, parC Ser80Ile Glu84Asp) was 0.5 µg/mL (≈ 1.61 µM) and the MIC (P. aeruginosa [2]; PA1586 (CIP resistant clinical isolate)) was greater than 32 µg/mL. The MIC (P. aeruginosa [2]; Pseudomonas aeruginosa, P. aeruginosa PAO1, read-out: MIC) was greater than 32 µg/mL, the MIC (P. aeruginosa [2]; Pseudomonas aeruginosa, read-out: MIC) was greater than 32 µg/mL and the MIC (A. baumannii [3]) was greater than 32 µg/mL. It also gave an MIC (A. baumannii [3]; ATCC19606, A. baumannii ATCC 19606, read-out: MIC) greater than 32 µg/mL, an MIC (MRSA clinical isolates; strain SAU.1118) of 8 µg/mL (≈ 25.8 µM) and an MIC (MRSA clinical isolates; strain SAU.2996) of 2 µg/mL (≈ 6.44 µM). For the same compound, the MIC (MRSA clinical isolates; strain SAU.3017) was 4 µg/mL (≈ 12.9 µM), the MIC (MRSA clinical isolates; strain SAU.3021) was 0.125 µg/mL (≈ 0.403 µM) and the MIC (MRSA clinical isolates; strain SAU.3025) was 0.125 µg/mL (≈ 0.403 µM). The MIC (MRSA clinical isolates; strain SAU.3026) was 0.25 µg/mL (≈ 0.806 µM), the MIC (MRSA clinical isolates; strain SAU.42) was 8 µg/mL (≈ 25.8 µM) and the MIC (MRSA clinical isolates; strain SAU.447) was 1 µg/mL (≈ 3.22 µM). For the same compound, the MIC (MRSA clinical isolates; strain SAU.555) was 0.5 µg/mL (≈ 1.61 µM), the MIC (MRSA clinical isolates; strain SAU.669) was 0.125 µg/mL (≈ 0.403 µM) and the “Sensitivity of MRSA clinical isolates” value (MRSA clinical isolates; panel of MRSA clinical isolates (n=21)) was “sensitive”. For the same compound, the MIC (E. coli; Escherichia coli, ATCC25922, E. coli ATCC 25922, gyrA none, parC none) was greater than 32 µg/mL, the “MIC against S. aureus NRS3” value [6] was 0.12 µg/mL (≈ 0.387 µM) and the “MIC against S. aureus 29213” value ([7]; ATCC 29213) was 16 µg/mL (≈ 51.6 µM). For the same compound, the MIC ([7]; Staphylococcus aureus, ATCC29213, ATCC 29213, read-out: MIC against S. aureus 29213) was 16 µg/mL (≈ 51.6 µM).
